{"source": "patent US10472341B2", "about": "“Bicyclic tetrahydrothiazepine derivatives useful for the treatment of neoplastic and/or infectious diseases” (APEIRON BIOLOGICS AG, priority 2015, dated 2019)", "tested_on": "Splenocytes of BL6 mice", "test": "Murine splenocytes stimulated with anti-CD3 and anti-CD28 antibodies: IL-2, CD25 on CD4 and CD8 T cells", "format": "cell-based, mouse", "settings": "for production of cytokine: murine splenocytes stimulated with anti-CD3 and anti-CD28; for enhancement of cytokine production: unstimulated murine splenocytes", "note": "Structures can show the parent of a compound that is named as a salt."}
{"compound": "N[C@H]1CS(=O)(=O)c2cc(F)c(C(=O)NC3CC3(F)F)cc2N(Cc2ccc(Cl)cc2)C1=O", "note": "(stereo partly drawn) [Example 1, (3R)-3-amino-5-[(4-chlorophenyl)methyl]-N-(2,2-difluorocyclopropyl)-8-fluoro-1,1,4-trioxo-2,3,4,5-tetrahydro-1λ^6,5-benzothiazepine-7-carboxamide hydrochloride]", "values": [{"measurement": "CD25+ CD4 T cells", "setting": "aCD3/28 stim, 0.3 μM", "result": 7.48, "unit": "% gated"}, {"measurement": "CD25+ CD8 T cells", "setting": "aCD3/28 stim, 0.3 μM", "result": 5.86, "unit": "% gated"}, {"measurement": "IL-2 production", "setting": "aCD3/28 stim, 0.3 μM", "result": 0.29, "unit": "ng/mL"}, {"measurement": "CD25+ CD4 T cells", "setting": "aCD3/28 stim, 1 μM", "result": 7.42, "unit": "% gated"}, {"measurement": "CD25+ CD8 T cells", "setting": "aCD3/28 stim, 1 μM", "result": 7.17, "unit": "% gated"}, {"measurement": "IL-2 production", "setting": "aCD3/28 stim, 1 μM", "result": 0.45, "unit": "ng/mL"}, {"measurement": "CD25+ CD4 T cells", "setting": "aCD3/28 stim, 3 μM", "result": 9.19, "unit": "% gated"}, {"measurement": "CD25+ CD8 T cells", "setting": "aCD3/28 stim, 3 μM", "result": 10.90, "unit": "% gated"}, {"measurement": "IL-2 production", "setting": "aCD3/28 stim, 3 μM", "result": 0.61, "unit": "ng/mL"}, {"measurement": "CD25+ CD4 T cells", "setting": "aCD3/28 stim, 10 μM", "result": 12.15, "unit": "% gated"}, {"measurement": "CD25+ CD8 T cells", "setting": "aCD3/28 stim, 10 μM", "result": 15.76, "unit": "% gated"}, {"measurement": "IL-2 production", "setting": "aCD3/28 stim, 10 μM", "result": 1.46, "unit": "ng/mL"}, {"measurement": "CD25+ CD4 T cells", "setting": "aCD3/28 stim, 30 μM", "result": 12.01, "unit": "% gated"}, {"measurement": "CD25+ CD8 T cells", "setting": "aCD3/28 stim, 30 μM", "result": 16.51, "unit": "% gated"}, {"measurement": "IL-2 production", "setting": "aCD3/28 stim, 30 μM", "result": 1.71, "unit": "ng/mL"}, {"measurement": "production of cytokine", "result": "strongly enhanced production of cytokine"}, {"measurement": "CD25+ CD4 T cells", "setting": "unstim, 0.3 μM", "result": 0.50, "unit": "% gated"}, {"measurement": "CD25+ CD8 T cells", "setting": "unstim, 0.3 μM", "result": 0.61, "unit": "% gated"}, {"measurement": "IL-2 production", "setting": "unstim, 0.3 μM", "result": 0.00, "unit": "ng/mL"}, {"measurement": "CD25+ CD4 T cells", "setting": "unstim, 1 μM", "result": 0.50, "unit": "% gated"}, {"measurement": "CD25+ CD8 T cells", "setting": "unstim, 1 μM", "result": 0.65, "unit": "% gated"}, {"measurement": "IL-2 production", "setting": "unstim, 1 μM", "result": 0.00, "unit": "ng/mL"}, {"measurement": "CD25+ CD4 T cells", "setting": "unstim, 3 μM", "result": 0.42, "unit": "% gated"}, {"measurement": "CD25+ CD8 T cells", "setting": "unstim, 3 μM", "result": 0.61, "unit": "% gated"}, {"measurement": "IL-2 production", "setting": "unstim, 3 μM", "result": 0.00, "unit": "ng/mL"}, {"measurement": "CD25+ CD4 T cells", "setting": "unstim, 10 μM", "result": 0.41, "unit": "% gated"}, {"measurement": "CD25+ CD8 T cells", "setting": "unstim, 10 μM", "result": 0.62, "unit": "% gated"}, {"measurement": "IL-2 production", "setting": "unstim, 10 μM", "result": 0.00, "unit": "ng/mL"}, {"measurement": "CD25+ CD4 T cells", "setting": "unstim, 30 μM", "result": 0.38, "unit": "% gated"}, {"measurement": "CD25+ CD8 T cells", "setting": "unstim, 30 μM", "result": 0.56, "unit": "% gated"}, {"measurement": "IL-2 production", "setting": "unstim, 30 μM", "result": 0.00, "unit": "ng/mL"}, {"measurement": "enhancement of cytokine production", "result": "such effect was not detected on unstimulated cells"}]}
{"compound": "Cl.N[C@H]1CS(=O)(=O)c2cc(F)c(C(=O)NCCCC(F)(F)F)cc2N(Cc2ccc(Cl)cc2)C1=O", "note": "[Example 70, (3R)-3-amino-5-[(4-chlorophenyl)methyl]-8-fluoro-1,1,4-trioxo-N-(4,4,4-trifluoro-butyl)-2,3,4,5-tetrahydro-1λ^6,5-benzothiazepine-7-carboxamide hydrochloride]", "values": [{"measurement": "CD25+ CD4 T cells", "setting": "aCD3/28 stim, 0.3 μM", "result": 8.10, "unit": "% gated"}, {"measurement": "CD25+ CD8 T cells", "setting": "aCD3/28 stim, 0.3 μM", "result": 10.10, "unit": "% gated"}, {"measurement": "IL-2 production", "setting": "aCD3/28 stim, 0.3 μM", "result": 0.77, "unit": "ng/mL"}, {"measurement": "CD25+ CD4 T cells", "setting": "aCD3/28 stim, 1 μM", "result": 9.28, "unit": "% gated"}, {"measurement": "CD25+ CD8 T cells", "setting": "aCD3/28 stim, 1 μM", "result": 10.41, "unit": "% gated"}, {"measurement": "IL-2 production", "setting": "aCD3/28 stim, 1 μM", "result": 0.91, "unit": "ng/mL"}, {"measurement": "CD25+ CD4 T cells", "setting": "aCD3/28 stim, 3 μM", "result": 11.88, "unit": "% gated"}, {"measurement": "CD25+ CD8 T cells", "setting": "aCD3/28 stim, 3 μM", "result": 14.58, "unit": "% gated"}, {"measurement": "IL-2 production", "setting": "aCD3/28 stim, 3 μM", "result": 1.54, "unit": "ng/mL"}, {"measurement": "CD25+ CD4 T cells", "setting": "aCD3/28 stim, 10 μM", "result": 13.41, "unit": "% gated"}, {"measurement": "CD25+ CD8 T cells", "setting": "aCD3/28 stim, 10 μM", "result": 16.68, "unit": "% gated"}, {"measurement": "IL-2 production", "setting": "aCD3/28 stim, 10 μM", "result": 1.90, "unit": "ng/mL"}, {"measurement": "CD25+ CD4 T cells", "setting": "aCD3/28 stim, 30 μM", "result": 11.94, "unit": "% gated"}, {"measurement": "CD25+ CD8 T cells", "setting": "aCD3/28 stim, 30 μM", "result": 17.50, "unit": "% gated"}, {"measurement": "IL-2 production", "setting": "aCD3/28 stim, 30 μM", "result": 1.71, "unit": "ng/mL"}, {"measurement": "production of cytokine", "result": "strongly enhanced production of cytokine"}, {"measurement": "CD25+ CD4 T cells", "setting": "unstim, 0.3 μM", "result": 0.55, "unit": "% gated"}, {"measurement": "CD25+ CD8 T cells", "setting": "unstim, 0.3 μM", "result": 0.61, "unit": "% gated"}, {"measurement": "IL-2 production", "setting": "unstim, 0.3 μM", "result": 0.00, "unit": "ng/mL"}, {"measurement": "CD25+ CD4 T cells", "setting": "unstim, 1 μM", "result": 0.45, "unit": "% gated"}, {"measurement": "CD25+ CD8 T cells", "setting": "unstim, 1 μM", "result": 0.65, "unit": "% gated"}, {"measurement": "IL-2 production", "setting": "unstim, 1 μM", "result": 0.00, "unit": "ng/mL"}, {"measurement": "CD25+ CD4 T cells", "setting": "unstim, 3 μM", "result": 0.48, "unit": "% gated"}, {"measurement": "CD25+ CD8 T cells", "setting": "unstim, 3 μM", "result": 0.60, "unit": "% gated"}, {"measurement": "IL-2 production", "setting": "unstim, 3 μM", "result": 0.00, "unit": "ng/mL"}, {"measurement": "CD25+ CD4 T cells", "setting": "unstim, 10 μM", "result": 0.45, "unit": "% gated"}, {"measurement": "CD25+ CD8 T cells", "setting": "unstim, 10 μM", "result": 0.60, "unit": "% gated"}, {"measurement": "IL-2 production", "setting": "unstim, 10 μM", "result": 0.00, "unit": "ng/mL"}, {"measurement": "CD25+ CD4 T cells", "setting": "unstim, 30 μM", "result": 0.47, "unit": "% gated"}, {"measurement": "CD25+ CD8 T cells", "setting": "unstim, 30 μM", "result": 0.64, "unit": "% gated"}, {"measurement": "IL-2 production", "setting": "unstim, 30 μM", "result": 0.00, "unit": "ng/mL"}, {"measurement": "enhancement of cytokine production", "result": "such effect was not detected on unstimulated cells"}]}
